According to paper PMC8434007 (Molecules, 2021):
Where a name gives a salt, the structure may show the parent alone. Read-outs that look alike come from different tables or passages of the source.

Key:
Assay in all cases: biochemical
bovine thrombin = molecular target: T1, bovine thrombin (Bos taurus, UniProt P00735); conditions: for inhibition at 50 µM: read-out: inhibition percentage ± SEM, thr
T1 construct: purchased Sigma-Aldrich (Milan, Italy)

human recombinant fXa = molecular target: T2, human recombinant fXa (Homo sapiens, UniProt P00742); conditions: for inhibition at 50 µM: read-out: inhibition percentage ± SEM, fXa
T2 construct: purchased Chromogenix AB-Instrumentation Laboratories (Milan, Italy)
T2 sequence (P00742 235-488 limits assumed): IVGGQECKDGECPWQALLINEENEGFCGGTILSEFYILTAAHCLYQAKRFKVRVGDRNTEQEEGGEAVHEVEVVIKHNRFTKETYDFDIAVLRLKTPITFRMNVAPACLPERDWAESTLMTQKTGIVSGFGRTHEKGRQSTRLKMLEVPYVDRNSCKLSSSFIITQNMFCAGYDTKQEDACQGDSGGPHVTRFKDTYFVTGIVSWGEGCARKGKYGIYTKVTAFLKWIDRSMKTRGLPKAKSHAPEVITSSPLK
T2 sequence (P00742 41-179 partner limits assumed): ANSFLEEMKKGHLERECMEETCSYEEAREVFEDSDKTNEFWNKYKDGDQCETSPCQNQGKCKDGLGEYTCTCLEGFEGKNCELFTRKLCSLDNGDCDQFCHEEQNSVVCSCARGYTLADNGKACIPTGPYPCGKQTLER

[1] = molecular target: T3, electric eel acetylcholinesterase (eeAChE) (Electrophorus electricus, UniProt O42275); format: biochemical; conditions: for inhibition at 10 µM: read-out: inhibition percentage ± SEM, AChE
T3 construct: AChE (from electric eel) and BChE (from horse serum); from tissue
T3 sequence (O42275 24-633): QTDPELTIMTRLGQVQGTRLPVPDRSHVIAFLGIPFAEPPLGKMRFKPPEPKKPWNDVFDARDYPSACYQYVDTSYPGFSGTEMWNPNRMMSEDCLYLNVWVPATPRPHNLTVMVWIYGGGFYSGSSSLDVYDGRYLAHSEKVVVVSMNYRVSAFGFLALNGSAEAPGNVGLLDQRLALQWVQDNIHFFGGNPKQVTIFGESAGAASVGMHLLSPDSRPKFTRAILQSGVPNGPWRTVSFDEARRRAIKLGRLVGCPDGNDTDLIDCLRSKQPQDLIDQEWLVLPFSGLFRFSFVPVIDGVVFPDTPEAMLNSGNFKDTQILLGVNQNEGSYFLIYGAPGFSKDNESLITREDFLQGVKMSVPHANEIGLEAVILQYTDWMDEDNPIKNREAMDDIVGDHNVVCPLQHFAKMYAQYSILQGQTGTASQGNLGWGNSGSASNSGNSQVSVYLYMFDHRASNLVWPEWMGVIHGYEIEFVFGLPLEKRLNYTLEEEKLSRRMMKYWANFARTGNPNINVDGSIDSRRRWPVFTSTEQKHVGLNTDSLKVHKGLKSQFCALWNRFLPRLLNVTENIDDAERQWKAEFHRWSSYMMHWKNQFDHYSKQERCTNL

[2] = molecular target: T4, horse serum butyrylcholinesterase (eqBChE) (Equus caballus, UniProt P81908); conditions: for inhibition at 10 µM: read-out: inhibition percentage ± SEM, BChE
T4 construct: AChE (from electric eel) and BChE (from horse serum); from tissue; host or cells: horse serum
T4 sequence (P81908 whole entry): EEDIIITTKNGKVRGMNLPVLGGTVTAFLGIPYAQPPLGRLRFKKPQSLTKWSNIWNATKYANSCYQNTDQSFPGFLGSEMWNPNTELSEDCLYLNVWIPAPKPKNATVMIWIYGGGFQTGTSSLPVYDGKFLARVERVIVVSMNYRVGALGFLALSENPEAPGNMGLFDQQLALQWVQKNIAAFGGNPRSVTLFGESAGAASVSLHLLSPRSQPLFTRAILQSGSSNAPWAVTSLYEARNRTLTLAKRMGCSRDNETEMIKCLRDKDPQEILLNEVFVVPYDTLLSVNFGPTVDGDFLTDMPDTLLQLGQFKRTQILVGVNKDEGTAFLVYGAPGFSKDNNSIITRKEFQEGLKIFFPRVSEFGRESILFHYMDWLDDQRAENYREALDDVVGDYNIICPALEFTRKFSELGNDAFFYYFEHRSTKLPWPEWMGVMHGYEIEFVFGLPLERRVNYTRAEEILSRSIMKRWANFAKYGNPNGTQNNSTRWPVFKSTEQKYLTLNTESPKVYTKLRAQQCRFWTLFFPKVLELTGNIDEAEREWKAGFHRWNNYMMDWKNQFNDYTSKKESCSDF

[3] = bovine serum thrombin, Cheng–Prousoff from IC50, pH 8, read-out: Ki thr
[4] = human recombinant fXa, Cheng–Prousoff from IC50, pH 8, read-out: Ki fXa
[5] = electric eel AChE, Cheng–Prousoff from IC50, read-out: Ki AChE
[6] = horse serum BChE, Cheng–Prousoff from IC50, read-out: Ki BChE

Row | Compound | Ki (bovine thrombin; [3]) [nM] | Ki (human recombinant fXa; [4]) [nM] | Ki [1, 5] [nM] | Ki [2, 6] [nM] | also measured
1 | O=C(Nc1cccc(OCc2cccc(F)c2)c1)C1CCN(c2ccncc2)CC1 [Compound 1] | 6 | 5600 | 58 | 6950 | mechanism of eeAChE inhibition ([1]; Lineweaver–Burk, changed both Vmax and KM): noncompetitive/mixed-type inhibition; Ki ([1]; read-out: Ki eeAChE from replot of Lineweaver–Burk slopes versus inhibitor concentration): 56 nM; experimental ΔΔG score ([1]; thr vs AChE inhibition, one unit higher than predicted by docking): about 1.3 kcal/mol
2 | O=C(Nc1cccc(OCc2ccc(F)cc2)c1)C1CCN(c2ccncc2)CC1 [Compound 2] | 210 | 1100 | 240 | 1210 | –
3 | O=C(Nc1cccc(COc2ccc(F)cc2)c1)C1CCN(c2ccncc2)CC1 [Compound 3] | 26800 | 774 | 165 | 2600 | –
4 | O=C(Nc1ccc(OCc2cccc(F)c2)cc1)C1CCN(c2ccncc2)CC1 [Compound 4] | 6700 | 25100 | 3880 | 425 | –
5 | O=C(Nc1ccccc1OCc1cccc(F)c1)C1CCN(c2ccncc2)CC1 [Compound 5] | – | – | – | 655 | inhibition at 50 µM (bovine thrombin; bovine serum thrombin): 10%; inhibition at 50 µM (human recombinant fXa; human recombinant fXa): 2%; inhibition at 10 µM [1]: 12%
6 | O=C(Nc1cccc(OCCc2cccc(F)c2)c1)C1CCN(c2ccncc2)CC1 [Compound 6] | 2140 | 488 | 369 | 1750 | –
7 | O=C(Nc1cccc(OCCc2ccc(F)cc2)c1)C1CCN(c2ccncc2)CC1 [Compound 7] | 4460 | 133 | 650 | 5630 | –
8 | O=C(Nc1cccc(CCc2ccc(F)cc2)c1)C1CCN(c2ccncc2)CC1 [Compound 8] | 3720 | 37700 | 495 | 8200 | –
9 | O=C(Nc1ccc(F)cc1)c1cccc(NC(=O)C2CCN(c3ccncc3)CC2)c1 [Compound 9, N-(3-(4-fluorophenylcarbamoyl)phenyl)-1-(pyridin-4-yl)piperidine-4-carboxamide] | 4470 | 4040 | 270 | 8250 | –
10 | O=C(NCc1ccc(F)cc1)c1cccc(NC(=O)C2CCN(c3ccncc3)CC2)c1 [Compound 10, N-(3-(4-fluorobenzylcarbamoyl)phenyl)-1-(pyridin-4-yl)piperidine-4-carboxamide] | 10600 | 2400 | 255 | 370 | –
11 | O=C(Nc1ccc(F)cc1)Nc1cccc(NC(=O)C2CCN(c3ccncc3)CC2)c1 [Compound 12, 1-(3-(1-(pyridin-4-yl)piperidine-4-carboxamido)phenyl)-3-(4-fluorophenyl)urea] | 26700 | 16500 | 735 | – | inhibition at 10 µM ([2]; horse serum BChE): 15%
12 | N=C(N)N1CCC(C(=O)Nc2cccc(OCc3ccc(F)cc3)c2)CC1 [Compound 13] | 20000 | 33000 | 10000 | 260 | –
13 | CC(C)N1CCC(C(=O)Nc2cccc(OCc3ccc(F)cc3)c2)CC1 [Compound 14, N-(3-(4-fluorobenzyloxy)phenyl)-1-isopropylpiperidine-4-carboxamide] | – | – | 15500 | 130 | inhibition at 50 µM (bovine thrombin; bovine serum thrombin): 5%; inhibition at 50 µM (human recombinant fXa; human recombinant fXa): 28%; Ki ([2]; eqBChE 0.18 U/mL, butyrylthiocholine iodide 50-300 µM, inhibitor 0-1 µM, x-axis intercept, read-out: Ki eqBChE from replot of Lineweaver–Burk slopes versus [I]): 104 nM
14 | O=C(Nc1cccc(OCc2ccc(F)cc2)c1)C1CCN(C2CCCC2)CC1 [Compound 15, N-(3-(4-fluorobenzyloxy)phenyl)-1-cyclopentylpiperidine-4-carboxamide] | 30000 | – | – | 115 | inhibition at 50 µM (human recombinant fXa; human recombinant fXa): 40%; inhibition at 10 µM [1]: 27%
15 | CC(C)N1CCC(C(=O)Nc2ccc(OCc3ccc(F)cc3)cc2)CC1 [Compound 16, N-(4-(4-fluorobenzyloxy)phenyl)-1-isopropylpiperidine-4-carboxamide] | – | – | 6250 | 2360 | inhibition at 50 µM (bovine thrombin; bovine serum thrombin): 11%; inhibition at 50 µM (human recombinant fXa; human recombinant fXa): 5%
16 | O=C(Nc1ccc(OCc2ccc(F)cc2)cc1)C1CCN(C2CCCC2)CC1 [Compound 17, N-(4-(4-fluorobenzyloxy)phenyl)-1-cyclopentylpiperidine-4-carboxamide] | – | – | 3520 | 255 | inhibition at 50 µM (bovine thrombin; bovine serum thrombin): 25%; inhibition at 50 µM (human recombinant fXa; human recombinant fXa): 28%

Row | Compound | Ki (bovine thrombin; [3]) [nM] | Ki (human recombinant fXa; [4]) [nM] | Ki [1, 5] [nM] | Ki [2, 6] [nM] | also measured
17 | CC(C)N1CCC(C(=O)Nc2ccccc2OCc2ccc(F)cc2)CC1 [Compound 18, N-(2-(4-fluorobenzyloxy)phenyl)-1-isopropylpiperidine-4-carboxamide] | 5350 | 10500 | – | 378 | inhibition at 10 µM [1]: 15%
18 | O=C(Nc1ccccc1OCc1ccc(F)cc1)C1CCN(C2CCCC2)CC1 [Compound 19, N-(2-(4-fluorobenzyloxy)phenyl)-1-cyclopentylpiperidine-4-carboxamide] | – | – | – | 215 | inhibition at 50 µM (bovine thrombin; bovine serum thrombin): 12%; inhibition at 50 µM (human recombinant fXa; human recombinant fXa): 28%; inhibition at 10 µM [1]: 35%
19 | CC(C)N1CCC(C(=O)Nc2ccccc2OCc2ccc(Cl)cc2)CC1 [Compound 20, N-(2-(4-chlorobenzyloxy)phenyl)-1-isopropylpiperidine-4-carboxamide] | – | 484 | – | 105 | inhibition at 50 µM (bovine thrombin; bovine serum thrombin): 20%; inhibition at 10 µM [1]: 11%
20 | N=C(N)N1CCC(C(=O)Nc2ccccc2OCc2ccc(Cl)cc2)CC1 [Compound 21, N-(2-(4-Chlorobenzyloxy)phenyl)-1-amidinopiperidine-4-carboxamide hydrochloride] | 25900 | 60600 | – | 8200 | inhibition at 10 µM [1]: 38%
21 | CC(C)N1CCC(C(=O)Nc2cccc(OCc3ccc(-c4ccc(Cl)cc4)cc3)c2)CC1 [Compound 22] | – | 165 | 3330 | – | inhibition at 50 µM (bovine thrombin; bovine serum thrombin): 5%; inhibition at 10 µM ([2]; horse serum BChE): 35%
22 | N=C(N)N1CCC(C(=O)Nc2cccc(OCc3ccc(-c4ccc(Cl)cc4)cc3)c2)CC1 [Compound 23] | 2040 | – | 5800 | 90 | Ki (human recombinant fXa; human fXa, read-out: Ki fXa): 31 ± 1 nM
23 | CC(C)N1CCC(C(=O)Nc2cccc(OCc3cc(-c4ccc(Cl)cc4)on3)c2)CC1 [Compound 24] | – | 218 | 6300 | 3060 | inhibition at 50 µM (bovine thrombin; bovine serum thrombin): 15%
24 | N=C(N)N1CCC(C(=O)Nc2cccc(OCc3cc(-c4ccc(Cl)cc4)on3)c2)CC1 [Compound 25] | 630 | 26 | 11000 | 7670 | –
25 | CC(C)N1CCC(C(=O)Nc2ccccc2OCc2cc(-c3ccc(Cl)cc3)on2)CC1 [Compound 26] | 13700 | 7 | 11500 | 1110 | –
26 | N=C(N)N1CCC(C(=O)Nc2ccccc2OCc2cc(-c3ccc(Cl)cc3)on2)CC1 [Compound 27] | 21200 | 60 | – | 10000 | inhibition at 10 µM [1]: 16%
27 | N=C(N)N1CCC(C(=O)Nc2cccc(OCc3cc(-c4cccc(Cl)c4)on3)c2)CC1 [Compound 29] | 15300 | 388 | 10000 | 1120 | –
28 | CC(C)N1CCC(C(=O)Nc2cccc(OCc3cc(-c4ccc(Cl)s4)on3)c2)CC1 [Compound 30] | 16000 | 90 | 5100 | 2130 | –
29 | N=C(N)N1CCC(C(=O)Nc2cccc(OCc3cc(-c4ccc(Cl)s4)on3)c2)CC1 [Compound 31] | – | – | – | 1620 | Ki (human recombinant fXa): 15 nM; inhibition at 10 µM [1]: 31%
30 | [H]/N=C(/N)c1ccc(NCc2nc3cc(C(=O)N(CCC(=O)O)c4ccccn4)ccc3n2C)cc1 [dabigatran, reference compound] | – | – | – | – | Ki (bovine thrombin): 4.2 nM; inhibition at 10 µM ([2]; horse serum BChE): 36%
31 | N-(2-(3-chlorobenzyloxy)phenyl)-1-isopropylpiperidine-4-carboxamide [Compound 28] | 23000 | 867 | 7000 | 4100 | –
